Legend:
Format in all cases: in vivo
[1] = test system: foxtail, giant (giant foxtail, Setaria faberii); test: Test C preemergence, plant response rating; conditions: Preemergence
Method in brief: (§1)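 After sowing in loam–sand blend or silt loam, pots were sprayed preemergence; separately grown 1- to 4-leaf plants were sprayed postemergence. Following 13 to 15 d under greenhouse conditions, injury was rated visually on a 0 to 100 scale.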

[2] = test system: nutsedge, yellow (yellow nutsedge, Cyperus esculentus); test: Test C preemergence, plant response rating; conditions: Preemergence
Method in brief: as §1

[3] = test system: oilseed rape (Brassica napus); test: Test C preemergence, plant response rating; conditions: Preemergence
Method in brief: as §1

soybean (Glycine max) = test: Test C preemergence, plant response rating; conditions: Preemergence
Method in brief: as §1

[4] = test system: velvetleaf (Abutilon theophrasti); test: Test C preemergence, plant response rating; conditions: Preemergence
Method in brief: as §1

corn (Zea mays) = test: Test C preemergence, plant response rating; conditions: Preemergence
Method in brief: as §1

[5] = test system: waterhemp (common waterhemp, Amaranthus rudis); test: Test C preemergence, plant response rating; conditions: Preemergence
Method in brief: as §1

[6] = test system: ryegrass, Italian (Italian ryegrass, Lolium multiflorum); test: Test C preemergence, plant response rating; conditions: Preemergence
Method in brief: as §1

[7] = test system: blackgrass (Alopecurus myosuroides); test: Test C preemergence, plant response rating; conditions: Preemergence
Method in brief: as §1

[8] = test system: wheat (winter wheat, Triticum aestivum); test: Test C preemergence, plant response rating; conditions: Preemergence
Method in brief: as §1

[9] = test system: lambsquarters (Chenopodium album); test: Test C preemergence, plant response rating; conditions: Preemergence
Method in brief: as §1

[10] = test system: crabgrass, large (large crabgrass, Digitaria sanguinalis); test: Test C preemergence, plant response rating; conditions: Preemergence
Method in brief: as §1

[11] = test system: ragweed (common ragweed, Ambrosia elatior); test: Test C preemergence, plant response rating; conditions: Preemergence
Method in brief: as §1

[12] = test system: morningglory (Ipomoea coccinea); test: Test C preemergence, plant response rating; conditions: Preemergence
Method in brief: as §1

[13] = test system: foxtail, giant (giant foxtail, Setaria faberii); test: Test C postemergence, plant response rating; conditions: for Foxtail, Giant plant response rating: scale 0 to 100 (0 no effect, 100 complete control)
Method in brief: as §1

[14] = test system: oilseed rape (Brassica napus); test: Test C postemergence, plant response rating; conditions: for Oilseed Rape plant response rating: scale 0 to 100 (0 no effect, 100 complete control)
Method in brief: as §1

[15] = test system: velvetleaf (Abutilon theophrasti); test: Test C postemergence, plant response rating; conditions: for Velvetleaf plant response rating: scale 0 to 100 (0 no effect, 100 complete control)
Method in brief: as §1

[16] = test system: blackgrass (Alopecurus myosuroides); test: Test C postemergence, plant response rating; conditions: for Plant response rating, Blackgrass: scale 0 to 100; for Blackgrass plant response rating: scale 0 to 100 (0 no effect, 100 complete control)
Method in brief: as §1

[17] = test system: wheat (winter wheat, Triticum aestivum); test: Test C postemergence, plant response rating; conditions: for Wheat plant response rating: scale 0 to 100 (0 no effect, 100 complete control)
Method in brief: as §1

[18] = test system: barnyardgrass (Echinochloa crus-galli); test: Test C postemergence, plant response rating; conditions: for Plant response rating, Barnyardgrass: scale 0 to 100; for Barnyardgrass plant response rating: scale 0 to 100 (0 no effect, 100 complete control)
Method in brief: as §1

[19] = test system: morningglory (Ipomoea coccinea); test: Test C postemergence, plant response rating; conditions: for Morningglory plant response rating: scale 0 to 100 (0 no effect, 100 complete control)
Method in brief: as §1

## O=C(CCCC(F)(F)F)c1c(Br)cccc1Oc1ncc(Cl)cn1 [Compound 77]
[1]; 62 g ai/ha, scale of 0 to 100
  Plant response rating, Foxtail, Giant: 100
[1]; 125 g ai/ha, scale of 0 to 100
  Plant response rating, Foxtail, Giant: 100
[1]; 16 g ai/ha, scale 0 to 100
  Plant response rating, Foxtail, Giant: 95
[1]; 31 g ai/ha, scale 0 to 100
  Plant response rating, Foxtail, Giant: 100
[2]; 125 g ai/ha, scale of 0 to 100
  Plant response rating, Nutsedge, Yellow: 30
[2]; 16 g ai/ha, scale 0 to 100
  Plant response rating, Nutsedge, Yellow: 0
[2]; 31 g ai/ha, scale 0 to 100
  Plant response rating, Nutsedge, Yellow: 0
[2]; 62 g ai/ha, scale 0 to 100
  Plant response rating, Nutsedge, Yellow: 0
[3]; 125 g ai/ha, scale of 0 to 100
  Plant response rating, Oilseed Rape: 100
[3]; 16 g ai/ha, scale 0 to 100
  Plant response rating, Oilseed Rape: 0
[3]; 31 g ai/ha, scale 0 to 100
  Plant response rating, Oilseed Rape: 55
[3]; 62 g ai/ha, scale 0 to 100
  Plant response rating, Oilseed Rape: 100
Soybean (Glycine max); 125 g ai/ha, scale of 0 to 100
  Plant response rating, Soybean: 25
Soybean (Glycine max); 16 g ai/ha, scale 0 to 100
  Plant response rating, Soybean: 5
Soybean (Glycine max); 31 g ai/ha, scale 0 to 100
  Plant response rating, Soybean: 5
Soybean (Glycine max); 62 g ai/ha, scale 0 to 100
  Plant response rating, Soybean: 15
[4]; 125 g ai/ha, scale of 0 to 100
  Plant response rating, Velvetleaf: 100
[4]; 16 g ai/ha, scale 0 to 100
  Plant response rating, Velvetleaf: 10
[4]; 31 g ai/ha, scale 0 to 100
  Plant response rating, Velvetleaf: 30
[4]; 62 g ai/ha, scale 0 to 100
  Plant response rating, Velvetleaf: 70
Corn (Zea mays); 62 g ai/ha, scale of 0 to 100
  Plant response rating, Corn: 20
Corn (Zea mays); 125 g ai/ha, scale of 0 to 100
  Plant response rating, Corn: 35
Corn (Zea mays); 16 g ai/ha, scale 0 to 100
  Plant response rating, Corn: 0
Corn (Zea mays); 31 g ai/ha, scale 0 to 100
  Plant response rating, Corn: 15
[5]; 125 g ai/ha, scale of 0 to 100
  Plant response rating, Waterhemp: 100
[5]; 16 g ai/ha, scale 0 to 100
  Plant response rating, Waterhemp: 95
[5]; 31 g ai/ha, scale 0 to 100
  Plant response rating, Waterhemp: 100
[5]; 62 g ai/ha, scale 0 to 100
  Plant response rating, Waterhemp: 100
[6]; 125 g ai/ha, scale of 0 to 100
  Plant response rating, Ryegrass, Italian: 90
[6]; 16 g ai/ha, scale 0 to 100
  Plant response rating, Ryegrass, Italian: 0
[6]; 31 g ai/ha, scale 0 to 100
  Plant response rating, Ryegrass, Italian: 30
[6]; 62 g ai/ha, scale 0 to 100
  Plant response rating, Ryegrass, Italian: 35
[7]; 62 g ai/ha, scale of 0 to 100
  Plant response rating, Blackgrass: 90
[7]; 125 g ai/ha, scale of 0 to 100
  Plant response rating, Blackgrass: 100
[7]; 16 g ai/ha, scale 0 to 100
  Plant response rating, Blackgrass: 5
[7]; 31 g ai/ha, scale 0 to 100
  Plant response rating, Blackgrass: 15
[8]; 125 g ai/ha, scale of 0 to 100
  Plant response rating, Wheat: 0
[8]; 16 g ai/ha, scale 0 to 100
  Plant response rating, Wheat: 0
[8]; 31 g ai/ha, scale 0 to 100
  Plant response rating, Wheat: 0
[8]; 62 g ai/ha, scale 0 to 100
  Plant response rating, Wheat: 0
[9]; 125 g ai/ha, scale of 0 to 100
  Plant response rating, Lambsquarters: 98
[9]; 16 g ai/ha, scale 0 to 100
  Plant response rating, Lambsquarters: 50
[9]; 31 g ai/ha, scale 0 to 100
  Plant response rating, Lambsquarters: 60
[9]; 62 g ai/ha, scale 0 to 100
  Plant response rating, Lambsquarters: 100
[10]; 62 g ai/ha, scale of 0 to 100
  Plant response rating, Crabgrass, Large: 100
[10]; 125 g ai/ha, scale of 0 to 100
  Plant response rating, Crabgrass, Large: 100
[10]; 16 g ai/ha, scale 0 to 100
  Plant response rating, Crabgrass, Large: 98
[10]; 31 g ai/ha, scale 0 to 100
  Plant response rating, Crabgrass, Large: 100
[11]; 125 g ai/ha, scale of 0 to 100
  Plant response rating, Ragweed: 45
[11]; 16 g ai/ha, scale 0 to 100
  Plant response rating, Ragweed: 0
[11]; 31 g ai/ha, scale 0 to 100
  Plant response rating, Ragweed: 0
[11]; 62 g ai/ha, scale 0 to 100
  Plant response rating, Ragweed: 40
[12]; 125 g ai/ha, scale of 0 to 100
  Plant response rating, Morningglory: 65
[12]; 16 g ai/ha, scale 0 to 100
  Plant response rating, Morningglory: 10
[12]; 31 g ai/ha, scale 0 to 100
  Plant response rating, Morningglory: 20
[12]; 62 g ai/ha, scale 0 to 100
  Plant response rating, Morningglory: 35
[13]; 16 g ai/ha, scale of 0 to 100
  Plant response rating, Foxtail, Giant: 10
[13]; 31 g ai/ha, scale 0 to 100
  Plant response rating, Foxtail, Giant: 20
[13]; 62 g ai/ha
  Foxtail, Giant plant response rating: 25
[13]; 125 g ai/ha
  Foxtail, Giant plant response rating: 70
[14]; 16 g ai/ha, scale of 0 to 100
  Plant response rating, Oilseed Rape: 10
[14]; 31 g ai/ha, scale 0 to 100
  Plant response rating, Oilseed Rape: 70
[14]; 62 g ai/ha
  Oilseed Rape plant response rating: 70
[14]; 125 g ai/ha
  Oilseed Rape plant response rating: 85
[15]; 16 g ai/ha, scale of 0 to 100
  Plant response rating, Velvetleaf: 35
[15]; 31 g ai/ha, scale 0 to 100
  Plant response rating, Velvetleaf: 50
[15]; 62 g ai/ha
  Velvetleaf plant response rating: 55
[15]; 125 g ai/ha
  Velvetleaf plant response rating: 65
[16]; 16 g ai/ha
  Plant response rating, Blackgrass: 5
[16]; 31 g ai/ha
  Plant response rating, Blackgrass: 20
[16]; 62 g ai/ha
  Blackgrass plant response rating: 20
[16]; 125 g ai/ha
  Blackgrass plant response rating: 25
[17]; 16 g ai/ha, scale of 0 to 100
  Plant response rating, Wheat: 0
[17]; 31 g ai/ha, scale 0 to 100
  Plant response rating, Wheat: 0
[17]; 62 g ai/ha
  Wheat plant response rating: 10
[17]; 125 g ai/ha
  Wheat plant response rating: 30
[18]; 16 g ai/ha
  Plant response rating, Barnyardgrass: 15
[18]; 31 g ai/ha
  Plant response rating, Barnyardgrass: 25
[18]; 62 g ai/ha
  Barnyardgrass plant response rating: 25
[18]; 125 g ai/ha
  Barnyardgrass plant response rating: 30
[19]; 16 g ai/ha, scale of 0 to 100
  Plant response rating, Morningglory: 50
[19]; 31 g ai/ha, scale 0 to 100
  Plant response rating, Morningglory: 85
[19]; 62 g ai/ha
  Morningglory plant response rating: 90
[19]; 125 g ai/ha
  Morningglory plant response rating: 80
